Assay: Spectral change of Compound 5 in association with pH change (absorption and fluorescence spectra)
Format: physicochemical
Description: For all the samples, measurements were performed in a 1:1 mixed solvent of 100 mM sodium phosphate buffered solution and acetonitrile (containing 0.1% or less of DMSO as an auxiliary solvent).
In the case of Compound 5, for example, the tricarbocyanine fluorophore is a pH-sensitive FRET receptor, the dicarbocyanine fluorophore is an FRET donor, and the compound has a property that when the nitrogen atom binding to the methine chain of the tricarbocyanine fluorophore is protonated, the peak in the excitation spectrum shifts from around 660 nm to the longer wavelength side in connection with decrease of electron donating ability. […] Namely, by dissolving Compound 5 in a test sample, performing excitation with a light of 640 nm, and measuring ratio of fluorescence intensities at 660 nm and 750 nm upon excitation, it becomes possible to detect pH by the ratio method. Compound 5 is especially useful as a pH fluorescent probe for measuring pH in live cells or live tissues, in particular, in deep part tissues, under a physiological condition.
In a 1:1 mixed solution of 100 mmol/L phosphate buffer (pH 1.2, 2.1, 3.3, 3.9, 5.0, 6.0, 6.8) and acetonitrile (containing 0.1% or less of DMSO as an auxiliary solvent), absorption spectra and fluorescence spectra (excitation wavelength: 640 nm) of Compound 5 were measured. It can be understood that with elevation of pH, the absorbance around 650 nm increased, and the absorption spectrum changed. Moreover, it can also be understood that in the fluorescence spectrum, with elevation of pH, the fluorescence intensity decreased around 660 nm, and increased around 750 nm. Therefore, pH change can be accurately measured by using the ratio method based on one-wavelength excitation/ two-wavelength fluorescence measurement. […] The fluorescence intensities at 660 nm and 750 nm linearly change from pH 4 to 6, and accordingly, pH of this range can be measured by using Compound 5.

[1] = excitation 640 nm, 1:1 phosphate buffer (pH 1.2-6.8) and acetonitrile

## CN1/C(=C/C=C2\CCCC(/C=C/C3=[N+](C)c4ccccc4C3(C)C)=C2NCCCCCC(=O)N[C@H]2CC[C@H](NC(=O)CC[N+]3=C(/C=C/C=C/C=C4/N(CCC(=O)O)c5ccccc5C4(C)C)C(C)(C)c4ccccc43)CC2)C(C)(C)c2ccccc21 [Compound 5]
1:1 100 mmol/L phosphate buffer (pH 1.2-6.8) and acetonitrile
  change of absorbance around 650 nm with elevation of pH: increased
[1]
  change of fluorescence intensity around 660 nm with elevation of pH: decreased
  change of fluorescence intensity around 750 nm with elevation of pH: increased
Excitation light of 640 nm, nitrogen atom not protonated
  fluorescence wavelength of the tricarbocyanine fluorophore (FRET receptor): around 750 nm
Excitation light of 640 nm, nitrogen atom protonated
  fluorescence wavelength peak of the dicarbocyanine fluorophore (FRET donor): around 660 nm

Source: patent publication US8465985B2, “Fluorescent probe” (The University of Tokyo, priority 2007, dated 2013)
